These results are taken from US8143290B2, “Chemical compounds 572” (AstraZeneca AB, priority 2006, dated 2012).

As a reminder, the IC50 is the concentration that inhibits the measured activity by half.

In this assay the target is T1, recombinant human GR (Homo sapiens, UniProt P04150).
T1 construct: purchased Panvera/Invitrogen P2812 (kit P2893)
T1 sequence (P04150 1-777): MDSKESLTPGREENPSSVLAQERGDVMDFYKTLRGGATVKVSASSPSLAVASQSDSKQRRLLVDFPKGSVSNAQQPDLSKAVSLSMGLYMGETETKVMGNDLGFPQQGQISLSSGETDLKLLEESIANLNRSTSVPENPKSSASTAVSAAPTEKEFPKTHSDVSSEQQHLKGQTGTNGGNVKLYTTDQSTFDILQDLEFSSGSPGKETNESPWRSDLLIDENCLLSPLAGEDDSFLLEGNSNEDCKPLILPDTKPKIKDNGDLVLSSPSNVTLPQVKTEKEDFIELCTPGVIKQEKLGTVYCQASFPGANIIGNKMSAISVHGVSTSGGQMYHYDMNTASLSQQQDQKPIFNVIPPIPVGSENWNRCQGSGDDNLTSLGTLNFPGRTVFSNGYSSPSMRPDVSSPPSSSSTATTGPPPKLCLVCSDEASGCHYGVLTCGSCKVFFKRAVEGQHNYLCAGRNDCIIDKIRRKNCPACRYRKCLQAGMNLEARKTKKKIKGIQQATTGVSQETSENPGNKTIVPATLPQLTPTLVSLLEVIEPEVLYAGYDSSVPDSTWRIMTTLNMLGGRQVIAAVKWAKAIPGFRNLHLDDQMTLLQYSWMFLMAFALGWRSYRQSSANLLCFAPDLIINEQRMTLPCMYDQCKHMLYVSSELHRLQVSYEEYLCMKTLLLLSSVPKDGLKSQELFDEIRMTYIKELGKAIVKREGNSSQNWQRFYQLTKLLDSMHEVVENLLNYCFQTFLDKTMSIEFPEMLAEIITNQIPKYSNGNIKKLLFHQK
The assay can be described thus: Human Glucocorticoid Receptor (GR) Assay, fluorescence polarization. In kind it is binding. The following applies: GS Red tracer, incubated 2 h at r.t., XLfit model 205, read-out: GRhuFL_FP_v2 Mean IC50. Summed up:
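After 2 h dark incubation at r.t., polarization reported displacement of the GS Red tracer from recombinant GR, in buffer with phosphate, molybdate, EDTA, DTT and Stabilizing Peptide. Controls: dexamethasone (100%) and DMSO (0%).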
Background: Polarisation of emitted light reports the rotation of a fluorescent probe.
Regarding `Cc1c(F)cccc1[C@@H](Oc1ccc2c(cnn2-c2ccc(F)cc2)c1)[C@H](C)NC(=O)C(C)(C)C` [Example 190, N-[(1R,2S)-1-(3-fluoro-2-methyl-phenyl)-1-[1-(4-fluorophenyl)indazol-5-yl]oxy-propan-2-yl]-2,2-dimethyl-propanamide], the IC50 was found to be 4.5 nM.

For the compound `Cc1ccc(C)c([C@@H](Oc2ccc3c(cnn3-c3ccc(F)cc3)c2)[C@H](C)NC(=O)C(C)(F)F)c1` [Example 266, N-[(1R,2S)-1-(2,5-dimethylphenyl)-1-[1-(4-fluorophenyl)indazol-5-yl]oxy-propan-2-yl]-2,2-difluoro-propanamide], the IC50 turned out to be 2.9 nM.

Regarding `Cc1ccc(C)c([C@@H](Oc2ccc3c(cnn3-c3ccc(F)cc3)c2)[C@H](C)NC(=O)C2(C)CC2)c1` [Example 215, N-[(1R,2S)-1-(2,5-dimethylphenyl)-1-[1-(4-fluorophenyl)indazol-5-yl]oxy-propan-2-yl]-1-methyl-cyclopropane-1-carboxamide], the half-inhibitory concentration (IC50) turned out to be 4.4 nM.

On to `C[C@H](NC(=O)C1CCC1)[C@H](Oc1ccc2c(cnn2-c2ccc(F)cc2)c1)c1ccccc1` [Example 43, N-[(1R,2S)-1-[1-(4-fluorophenyl)indazol-5-yl]oxy-1-phenyl-propan-2-yl]cyclobutanecarboxamide], for which the IC50 is 2.2 nM.

Regarding `CC(C)(C)C(=O)NC(C(Oc1ccc2c(cnn2-c2ccc(F)cc2)c1)c1ccccc1)C(F)(F)F` (single isomer, unassigned) [Example 147D2E2, N-(1,1,1-trifluoro-3-(1-(4-fluorophenyl)-1H-indazol-5-yloxy)-3-phenylpropan-2-yl)pivalamide], the IC50 came to 12 nM.

On to `COc1cccc([C@@H](Oc2ccc3c(cnn3-c3ccc(F)cc3)c2)[C@H](C)NC(=O)CF)c1` [Example 53, 2-Fluoro-N-[(1R,2S)-1-[1-(4-fluorophenyl)indazol-5-yl]oxy-1-(3-methoxyphenyl)propan-2-yl]acetamide], for which the IC50 worked out at 3.5 nM.

`C[C@H](NC(=O)C(F)(F)F)[C@@H](Cc1ccccc1)Oc1ccc2c(cnn2-c2ccc(F)cc2)c1` [Example 72, 2,2,2-Trifluoro-N-[(2S,3R)-3-[1-(4-fluorophenyl)indazol-5-yl]oxy-4-phenyl-butan-2-yl]acetamide]: the IC50 turned out to be 3.7 nM.

On to `COc1cccc([C@@H](Oc2ccc3c(cnn3-c3ccc(F)cc3)c2)[C@H](C)NC(=O)c2cc(C)[nH]n2)c1` [Example 282, N-[(1R,2S)-1-[1-(4-fluorophenyl)indazol-5-yl]oxy-1-(3-methoxyphenyl)propan-2-yl]-5-methyl-1H-pyrazole-3-carboxamide], for which the IC50 was determined as 2.4 nM.

In the case of `Cc1cccc([C@@H](Oc2ccc3c(cnn3-c3ccc(F)cc3)c2)[C@H](C)NC(=O)C(C)(C)C)c1` [Example 185, N-[(1R,2S)-1-[1-(4-fluorophenyl)indazol-5-yl]oxy-1-(3-methylphenyl)propan-2-yl]-2,2-dimethyl-propanamide], the IC50 is 5.5 nM.

Regarding `C[C@H](NC(=O)C1(C)CC1)[C@H](Oc1ccc2c(cnn2-c2ccc(F)cc2)c1)c1cccc(Cl)c1` [Example 218, N-[(1R,2S)-1-(3-chlorophenyl)-1-[1-(4-fluorophenyl)indazol-5-yl]oxy-propan-2-yl]-1-methyl-cyclopropane-1-carboxamide], the IC50 worked out at 3.3 nM.

In the case of `CCC(=O)N[C@@H](C)[C@H](Oc1ccc2c(cnn2-c2ccc(F)cc2)c1)c1ccc(C(F)(F)F)cc1` [Example 61, N-[(1R,2S)-1-[1-(4-fluorophenyl)indazol-5-yl]oxy-1-[4-(trifluoromethyl)phenyl]propan-2-yl]propanamide], the IC50 was 3.3 nM.

As to `C[C@H](NC(=O)C(F)(F)F)[C@H](Oc1ccc2c(cnn2-c2ccc(CN3CCOCC3)cc2)c1)c1ccccc1` [Example 142, 2,2,2-trifluoro-N-((1R,2S)-1-(1-(4-(morpholinomethyl)phenyl)-1H-indazol-5-yloxy)-1-phenylpropan-2-yl)acetamide], the IC50 is 5.6 nM.

With `Cc1cnc(C(=O)N[C@@H](C)[C@H](Oc2ccc3c(cnn3-c3ccc(F)cc3)c2)c2ccc(Cl)cc2)s1` [Example 204, N-[(1R,2S)-1-(4-chlorophenyl)-1-[1-(4-fluorophenyl)indazol-5-yl]oxy-propan-2-yl]-5-methyl-1,3-thiazole-2-carboxamide], the IC50 came to 6.7 nM.

As for `CCOC(=O)CNC(=O)N[C@@H](C)[C@H](Oc1ccc2c(cnn2-c2ccc(F)cc2)c1)c1ccccc1` [Example 106, Ethyl N-{[(1S,2R)-2-{[1-(4-fluorophenyl)-1H-indazole-5-yl]oxy}-1-methyl-2-phenylethyl]carbamoyl}glycinate], the IC50 was 3.7 nM.

As for `Cc1cc(C)c([C@@H](Oc2ccc3c(cnn3-c3ccc(F)cc3)c2)[C@H](C)NC(=O)C(F)(F)F)cc1C` [Example 162, 2,2,2-trifluoro-N-[(1R,2S)-1-[1-(4-fluorophenyl)indazol-5-yl]oxy-1-(2,4,5-trimethylphenyl)propan-2-yl]acetamide], the IC50 stood at 14 nM.

On to `COc1cccc([C@@H](Oc2ccc3c(cnn3-c3ccc(F)cc3)c2)[C@H](C)NC(=O)c2ccc(C(F)(F)F)cc2)c1` [Example 83, N-((1R,2S)-1-(1-(4-fluorophenyl)-1H-indazol-5-yloxy)-1-(3-methoxyphenyl)propan-2-yl)-4-(trifluoromethyl)benzamide], for which the concentration for half-maximal inhibition (IC50) was 5.8 nM.

Take `CCc1ccc([C@@H](Oc2ccc3c(cnn3-c3ccc(F)cc3)c2)[C@H](C)NC(=O)CF)cc1` [Example 50, N-[(1R,2S)-1-(4-ethylphenyl)-1-[1-(4-fluorophenyl)indazol-5-yl]oxy-propan-2-yl]-2-fluoro-acetamide]: the IC50 was 2.9 nM.

For the compound `COc1cc([C@@H](Oc2ccc3c(cnn3-c3ccc(F)cc3)c2)[C@H](C)NC(=O)C(F)(F)F)ccc1SC` [Example 308, 2,2,2-trifluoro-N-((1R,2S)-1-(1-(4-fluorophenyl)-1H-indazol-5-yloxy)-1-(3-methoxy-4-(methylthio)phenyl)propan-2-yl)acetamide], the 50% inhibitory concentration (IC50) was 6.9 nM.

Regarding `C[C@H](NC(=O)C1(C)CC1)[C@H](Oc1ccc2c(cnn2-c2ccc(F)cc2)c1)c1cccc(F)c1` [Example 214, N-[(1R,2S)-1-(3-fluorophenyl)-1-[1-(4-fluorophenyl)indazol-5-yl]oxy-propan-2-yl]-1-methyl-cyclopropane-1-carboxamide], the IC50 amounted to 4.5 nM.

`COc1cccc([C@@H](Oc2ccc3c(cnn3-c3ccc(F)cc3)c2)[C@H](C)NC(=O)C(=O)OC(C)(C)C)c1` [Example 75, tert-Butyl [(1R,2S)-1-[1-(4-fluorophenyl)indazol-5-yl]oxy-1-(3-methoxyphenyl)propan-2-yl]carbamoylformate]: the IC50 is 5.3 nM.

As to `CC(=O)N[C@@H](C)[C@H](Oc1cc2cnn(-c3ccc(F)cc3)c2cc1Cl)c1ccc(F)cc1` (single isomer, unassigned) [Example 102, N-[(1R*,2S*)-1-[6-chloro-1-(4-fluorophenyl)indazol-5-yl]oxy-1-(4-fluorophenyl)propan-2-yl]acetamide], the IC50 stood at 2.5 nM.

`C[C@H](NC(=O)C(F)(F)F)[C@H](Oc1ccc2c(cnn2-c2ccc(F)cc2)c1)c1cccc(F)c1` [Example 152, 2,2,2-trifluoro-N-[(1R,2S)-1-(3-fluorophenyl)-1-[1-(4-fluorophenyl)indazol-5-yl]oxy-propan-2-yl]acetamide]: the IC50 amounted to 3.6 nM.

For `C[C@H](NC(=O)C(F)(F)F)[C@@H](COc1ccc(F)cc1F)Oc1ccc2c(cnn2-c2ccc(F)cc2)c1` [Example 305, N-((2S,3S)-4-(2,4-difluorophenoxy)-3-(1-(4-fluorophenyl)-1H-indazol-5-yloxy)butan-2-yl)-2,2,2-trifluoroacetamide], the IC50 is 8.3 nM.

In the case of `Cc1cnc(C(=O)N[C@@H](C)[C@H](Oc2ccc3c(cnn3-c3ccc(F)cc3)c2)c2cc(F)ccc2C)s1` [Example 201, N-[(1R,2S)-1-(5-fluoro-2-methyl-phenyl)-1-[1-(4-fluorophenyl)indazol-5-yl]oxy-propan-2-yl]-5-methyl-1,3-thiazole-2-carboxamide], the IC50 came out at 5.9 nM.

Regarding `COc1cccc([C@@H](Oc2ccc3c(cnn3-c3ccc(F)cc3)c2)[C@H](C)NC(=O)c2ncco2)c1` [Example 84, N-((1R,2S)-1-(1-(4-fluorophenyl)-1H-indazol-5-yloxy)-1-(3-methoxyphenyl)propan-2-yl)oxazole-2-carboxamide], the IC50 was found to be 2.3 nM.

For the compound `COc1c(C)cc([C@@H](Oc2ccc3c(cnn3-c3ccc(F)cc3)c2)[C@H](C)NC(=O)C(C)(C)C)cc1C` [Example 182, N-[(1R,2S)-1-[1-(4-fluorophenyl)indazol-5-yl]oxy-1-(4-methoxy-3,5-dimethyl-phenyl)propan-2-yl]-2,2-dimethyl-propanamide], the IC50 came to 5.5 nM.
